Assay results reported in patent US9102614B2, “Naphth-2-ylacetic acid derivatives to treat AIDS” (Gilead Sciences, Inc., priority 2010, dated 2015).

The molecules below were run on HIV-IIIb (assay: Test A: Antiviral Assays in MT4 Cells). Details: Human immunodeficiency virus 1, IIIB, MT4, 120 h.
Assay type: cell-based
Procedure: Test A: Antiviral Assays in MT4 Cells
For the antiviral assay utilizing MT-4 cells, 0.4 μL of […] test concentration of 3-fold serially diluted compound in DMSO was added to 40 μL of cell growth medium (RPMI 1640, 10% FBS, 1% penicillin/Streptomycin, 1% L-Glutamine, 1% HEPES) in each well of 384-well assay plates (10 concentrations) in quadruplicate.
1 mL aliquots of 2×10e6 MT-4 cells are pre-infected for 1 and 3 hrs respectively, @37° C. with 25 μL (MT4) or of either cell growth medium (mock-infected) or a fresh 1:250 dilution of an HIV-IIIb concentrated ABI stock (0.004 m.o.i. for MT4 cells). Infected and uninfected cells are diluted in cell growth medium and 35 uL of 2000 (for MT4) cells is added to each well of the assay plates.
Assay plates were then incubated in a 37° C. incubator. After 5 days of incubation, 25 μl of 2× concentrated CellTiter-Glo™ Reagent (catalog #G7573, Promega Biosciences, Inc., Madison, Wis.) was added to each well of the assay plate. Cell lysis was carried out by incubating at room temperature for 2-3 min and then chemiluminescence was read using the Envision reader (PerkinElmer).

For `Cc1cc2cc(F)c(F)cc2c(-c2ccc3c4c(ccnc24)CCO3)c1[C@H](OC(C)(C)C)C(=O)O` [Compound 108, (S)-2-tert-Butoxy-2-((R)-1-(2,3-dihydropyrano[4,3,2-de]quinolin-7-yl)-6,7-difluoro-3-methylnaphthalen-2-yl)acetic acid], which EC50 is on record?
Its EC50 is 28 nM.

Same assay, conditions: Human immunodeficiency virus 1, IIIB, MT4, 120 h, MT-4 cells infected with HIV-IIIb (0.004 m.o.i.), 5 days of incubation, CellTiter-Glo chemiluminescence readout; read-out: EC50

Which EC50 does the source give for `Cc1cc2ccc(CC(C)C)cc2c(-c2ccc(Cl)cc2)c1C(OC(C)(C)C)C(=O)O` (stereo not drawn) [Compound 94, 2-tert-Butoxy-2-(1-(4-chlorophenyl)-7-isobutyl-3-methylnaphthalen-2-yl)acetic acid] here?
Its EC50 is 12000 nM.

Which EC50 does the source give for `C=Cc1c(C)c(C(OC(C)(C)C)C(=O)O)c(-c2ccc(Cl)cc2)c2ccccc12` (stereo not drawn) [Compound 128, 2-tert-Butoxy-2-(1-(4-chlorophenyl)-3-methyl-4-vinylnaphthalen-2-yl)acetic acid] here?
The EC50 was 5300 nM.

How did the EC50 turn out when `Cc1cc2ccc(C#CC(C)(C)N(C)C)cc2c(-c2ccc(Cl)cc2)c1C(OC(C)(C)C)C(=O)O` (stereo not drawn) [Compound 95, 2-tert-Butoxy-2-(1-(4-chlorophenyl)-7-(3-(dimethylamino)-3-methylbut-1-ynyl)-3-methylnaphthalen-2-yl)acetic acid] was run?
The EC50 was 380 nM.

With `Cc1cc2ccccc2c(C2=CCC3(CC2)CC3)c1[C@H](OC(C)(C)C)C(=O)O` [Compound 15, (S)-2-tert-Butoxy-2-(3-methyl-1-(spiro[2.5]oct-5-en-6-yl)naphthalen-2-yl)acetic acid] as the molecule, how does the EC50 read?
The EC50 was 15 nM.

How did the EC50 turn out when `Cc1cc2cc(F)c(F)cc2c(-c2ccc3c4c(ccnc24)CCO3)c1[C@H](OC(C)(C)C)C(=O)O` (atropisomer, axis not shown) [Compound 174] was run?
Its EC50 is 3200 nM.

With `Cc1c(C(OC(C)(C)C)C(=O)O)c(-c2ccc(Cl)cc2)c2ccccc2c1CO` (stereo not drawn) [Compound 135, 2-tert-Butoxy-2-(1-(4-chlorophenyl)-4-(hydroxymethyl)-3-methylnaphthalen-2-yl)acetic acid] as the molecule, how does the EC50 read?
Its EC50 is 45 nM.

For `Cc1cc2ccc(C#CC(C)(C)N)cc2c(-c2ccc3c(c2)CCCO3)c1C(OC(C)(C)C)C(=O)O` (stereo not drawn) [Compound 87, 2-(7-(3-Amino-3-methylbut-1-ynyl)-1-(chroman-6-yl)-3-methylnaphthalen-2-yl)-2-tert-butoxyacetic acid], which EC50 is on record?
The EC50 was 72 nM.

How did the EC50 turn out when `Cc1c(C(OC(C)(C)C)C(=O)O)c(-c2ccc(Cl)cc2)c2ccccc2c1-c1ccccc1` (stereo not drawn) [Compound 136, 2-tert-Butoxy-2-(1-(4-chlorophenyl)-3-methyl-4-phenylnaphthalen-2-yl)acetic acid] was run?
Its EC50 is 340 nM.

With `Cc1cc2c(C)cccc2c(-c2ccc(Cl)cc2)c1C(OC(C)(C)C)C(=O)O` (stereo not drawn) [Compound 40, 2-tert-Butoxy-2-(1-(4-chlorophenyl)-3,5-dimethylnaphthalen-2-yl)acetic acid] as the molecule, how does the EC50 read?
The EC50 was 210 nM.

`Cc1c(C(OC(C)(C)C)C(=O)O)c(-c2ccc(Cl)cc2)c2ccccc2c1C#CCN(C)C` (stereo not drawn) [Compound 131, 2-tert-Butoxy-2-(1-(4-chlorophenyl)-4-(3-(dimethylamino)prop-1-ynyl)-3-methylnaphthalen-2-yl)acetic acid] was tested. Which EC50 did it give?
Its EC50 is 62 nM.

For `Cc1cc2cc(-c3cnccn3)ccc2c(-c2ccc(Cl)cc2)c1[C@H](OC(C)(C)C)C(=O)O` [Compound 60, (S)-2-tert-Butoxy-2-(1-(4-chlorophenyl)-3-methyl-6-(pyrazin-2-yl)naphthalen-2-yl)acetic acid], which EC50 is on record?
The EC50 was 32 nM.

Which EC50 does the source give for `Cc1c(C(OC(C)(C)C)C(=O)O)c(-c2ccc(Cl)cc2)c2ccccc2c1-c1ccc(=O)[nH]c1` (stereo not drawn) [Compound 144, 2-tert-Butoxy-2-(1-(4-chlorophenyl)-3-methyl-4-(6-oxo-1,6-dihydropyridin-3-yl)naphthalen-2-yl)acetic acid] here?
Its EC50 is 1300 nM.

Which EC50 does the source give for `Cc1cc2cc(C(F)F)ccc2c(-c2ccc3c4c(ccnc24)CCO3)c1[C@H](OC(C)(C)C)C(=O)O` [Compound 181, (S)-2-tert-butoxy-2-((R)-6-(difluoromethyl)-1-(2,3-dihydropyrano[4,3,2-de]quinolin-7-yl)-3-methylnaphthalen-2-yl)acetic acid] here?
Its EC50 is 5 nM.

`Cc1cc2cc(-c3ccc(Cl)cc3)ccc2c(-c2ccc(Cl)cc2)c1C(OC(C)(C)C)C(=O)O` (stereo not drawn) [Compound 66, 2-(1,6-Bis(4-chlorophenyl)-3-methylnaphthalen-2-yl)-2-tert-butoxyacetic acid] was tested. Which EC50 did it give?
The EC50 was 290 nM.

With `Cc1cc2c(Br)cccc2c(-c2ccc(Cl)cc2)c1C(OC(C)(C)C)C(=O)O` (stereo not drawn) [Compound 37, 2-(5-Bromo-1-(4-chlorophenyl)-3-methylnaphthalen-2-yl)-2-tert-butoxyacetic acid] as the molecule, how does the EC50 read?
Its EC50 is 1200 nM.

For `Cc1cc2ccc(Cl)cc2c(-c2ccc(Cl)cc2)c1C(OC(C)(C)C)C(=O)O` (stereo not drawn) [Compound 149, 2-tert-Butoxy-2-(7-chloro-1-(4-chlorophenyl)-3-methylnaphthalen-2-yl)acetic acid], which EC50 is on record?
The EC50 was 200 nM.

How did the EC50 turn out when `COc1cccc2c(-c3ccc(Cl)cc3)c(C(OC(C)(C)C)C(=O)O)c(C)cc12` (stereo not drawn) [Compound 34, tert-Butoxy-[1-(4-chloro-phenyl)-5-methoxy-3-methyl-naphthalen-2-yl]-acetic acid] was run?
Its EC50 is 350 nM.

Which EC50 does the source give for `CC(C)=Cc1ccc2cc(C)c(C(OC(C)(C)C)C(=O)O)c(-c3ccc(Cl)cc3)c2c1` (stereo not drawn) [Compound 77, 2-tert-butoxy-2-(1-(4-chlorophenyl)-3-methyl-7-(2-methylprop-1-enyl)naphthalen-2-yl)acetic acid] here?
The EC50 was 8900 nM.

With `Cc1cc2c(-c3cncnc3)cc(F)cc2c(-c2ccc3c4c(ccnc24)CCO3)c1[C@H](OC(C)(C)C)C(=O)O` (atropisomer, axis not shown) [Compound 153] as the molecule, how does the EC50 read?
The EC50 was 11000 nM.

Same assay, conditions: MT-4 cells infected with HIV-IIIb (0.004 m.o.i.), 5 days of incubation, CellTiter-Glo chemiluminescence readout; read-out: EC50

How did the EC50 turn out when `Cc1cc2cc(Cl)ccc2c(-c2ccc3c4c(ccnc24)CCO3)c1[C@H](OC(C)(C)C)C(=O)O` [Compound 68A, (S)-2-tert-Butoxy-2-((R)-6-chloro-1-(2,3-dihydropyrano[4,3,2-de]quinolin-7-yl)-3-methylnaphthalen-2-yl)acetic acid] was run?
Its EC50 is 14 nM.

Which EC50 does the source give for `Cc1cc2ccccc2c(-c2ccc(C(F)(F)F)c3cccnc23)c1[C@H](OC(C)(C)C)C(=O)O` [Compound 7D, (S)-2-tert-butoxy-2-((R)-3-methyl-1-(5-(trifluoromethyl)quinolin-8-yl)naphthalen-2-yl)acetic acid] here?
Its EC50 is 1700 nM.

Which EC50 does the source give for `Cc1cc2c(F)c(Cl)ccc2c(-c2ccc3c4c(ccnc24)CCO3)c1[C@H](OC(C)(C)C)C(=O)O` [Compound 115, (S)-2-tert-Butoxy-2-((R)-6-chloro-1-(2,3-dihydropyrano[4,3,2-de]quinolin-7-yl)-5-fluoro-3-methylnaphthalen-2-yl)acetic acid] here?
The EC50 was 37 nM.

Which EC50 does the source give for `Cc1c([C@H](OC(C)(C)C)C(=O)O)c(-c2ccc3c4c(ccnc24)CCO3)c2ccccc2c1F` [Compound 122, (2S)-2-tert-butoxy-2-((R)-1-(2,3-dihydropyrano[4,3,2-de]quinolin-7-yl)-4-fluoro-3-methylnaphthalen-2-yl)acetic acid] here?
The EC50 was 36 nM.

With `Cc1cc2ccccc2c(-c2ccc(F)c3cccnc23)c1[C@H](OC(C)(C)C)C(=O)O` [Compound 160] as the molecule, how does the EC50 read?
The EC50 was 36000 nM.

Which EC50 does the source give for `CNC(=O)c1cc2cc(C)c([C@H](OC(C)(C)C)C(=O)O)c(-c3ccc4c5c(ccnc35)CCO4)c2cc1F` [Compound 107, (S)-2-tert-Butoxy-2-((R)-1-(2,3-dihydropyrano[4,3,2-de]quinolin-7-yl)-7-fluoro-3-methyl-6-(methylcarbamoyl)naphthalen-2-yl)acetic acid] here?
The EC50 was 92 nM.

Which EC50 does the source give for `Cc1cc2ccccc2c(-c2ccc3c4c(ccnc24)CCO3)c1[C@H](OC(C)(C)C)C(=O)O` [Compound 161] here?
Its EC50 is 4700 nM.
